What was measured:
[1] = test system: Ku812-Luc+ (BCR-ABL+CML blast crisis) cells; assay: In vivo imaging of chemotherapy-induced apoptosis (AMN107); parameters: species or system mice; details: 20 μg probe after 3 doses of AMN107
Procedure: Subcutaneous tumors were established using Ku812-Luc+ (BCR-ABL+CML blast crisis) cells in NCr nude mice. When tumors were ˜1 cm, mice underwent bioluminescence imaging (BLI) to determine baseline tumor burden, followed by treatment with either AMN107 (nilotinib) at 100 mg/kg intraperitoneally (IP), or with vehicle. After 3 doses, animals were injected with 20 μg of LDH-Alexa750. Fluorescence imaging (FL) was performed 24 and 48 hrs after probe injection (day 4 and 5 of treatment) and BLI was repeated on day 5 of treatment (FIG. 9A).

[2] = test system: hepatocyte apoptosis; assay: In vivo NIR imaging of fulminant hepatic failure (anti-Fas antibody); parameters: species or system mice; details: liver region; 10 μg probe; 25 hrs after probe injection
Procedure: This model was used to compare LDH to Annexin V for near infrared (NIR) imaging of apoptosis. Alexa750-NHS was conjugated to Annexin V (Biovision) and chicken LDHB (XpressBio) at a labeling ratio of 2:1 per mole of protein based on prior optimization. A total of 10 male NCr nude mice were injected with 5 μg of anti-Fas antibody (Jo2, Pharmingen), and 10 animals were injected with 5 μg of an isotype-matched control antibody. Two hours later, mice were injected with 10 μg of either LDH-Alexa750 or Annexin V-Alexa750. Mice underwent NIR fluorescence imaging (IVIS Spectrum, Caliper) 25 hrs after probe injection (FIG. 8A). After spectral unmixing and background subtraction (Living Images software package), regions of interest were used to quantify fluorescence localized to the liver region (FIG. 8A), as indicated with arrowheads.

[3] = test system: apoptotic cells; assay: Staining requirements (temperature, calcium) of cLDHB and Annexin V; assay type: cell-based
Procedure: To determine if cLDHB is actively transported into cells, staining was performed at room temperature and at 4° C.
A major limitation of Annexin V staining is the requirement for supra-physiological concentrations of calcium (Tait, J. F., D. F. Gibson, and C. Smith, Anal Biochem, 2004. 329: 112-9). To determine whether cLDHB staining required calcium, Annexin V and cLDHB staining was performed in PBS (without calcium or magnesium) or in Annexin Binding Buffer (with 2.5 mM calcium).

[4] = test system: adherent and suspension cancer cell lines (e.g., HeLa, RS(4;11), THP-1, MDA-MB231); assay: Concordance of Annexin V and cLDHB staining across cancer cell lines; assay type: cell-based; details: apoptosis induced by camptothecin, doxorubicin, HDAC inhibitors
[5] = test system: THP-1 cells; assay: Staining of THP-1 cells treated with HDAC inhibitor LAQ824; assay type: cell-based; details: THP-1, LAQ824 50 nM, 18 hrs
Procedure: To correlate cLDHB staining with other measures of apoptosis, a fluorescent probe that binds to activated caspases (pan-caspase-FLICA, Immunochemistry Tech) was used. THP-1 cells were treated with the HDAC inhibitor LAQ824 (50 nM, 18 hrs) to induce apoptosis.
Similarly, we asked whether the […] proteins performed comparably to purified recombinant LDH.

[6] = test system: apoptotic cells; assay: Homogeneous multiwell apoptosis assay in normal growth medium; assay type: cell-based; details: e.g., RPMI with 10% FBS, flow cytometry or High-Content Microscopy
[7] = test system: HeLa cells; assay: FACS staining of camptothecin-treated apoptotic HeLa cells; assay type: cell-based
Procedure: HeLa cells (5×10^5 in 10 cm plates) maintained in DMEM with 10% FBS were contacted with 5 μM camptothecin to induce apoptosis. Cell staining by FITC-labeled Annexin V (Abcam, Cambridge, Mass.) or Cy5.5-labeled chicken LDH (1 μL) prepared as described in Example 1, was measured by fluorescence-activated cell sorting (FACS) analysis (with cells in annexin binding buffer (Abcam)) 12 h, 24 h, and 48 h later. Untreated HeLa cells served as negative controls.
Staining by Annexin V is known to require the presence of calcium. […] HeLa cells treated with camptothecin to induce apoptosis as in Example 9 were stained with FITC-labeled Annexin V (Abcam, Cambridge, Mass.) or Cy5.5-labeled chicken LDH in calcium-containing Annexin buffer or in calcium-free PBS. Stained cells were analyzed by FACS analysis as in Example 9.
HeLa cells (5×10^5 in 10 cm plates) maintained in DMEM with 10% FBS were contacted with 5 μM camptothecin to induce apoptosis. Cell staining was done in the media: (i) annexin buffer, (ii) DMEM supplemented with 1% FBS; (iii) DMEM supplemented with 2% FBS; (iii) DMEM supplemented with 5% FBS; (iv) DMEM supplemented with 10% FBS. For cell staining FITC-labeled Annexin V (Abcam, Cambridge, Mass.) or Cy5.5-labeled chicken LDH (1 μL) prepared as described in Example 1, was used to for FACS analysis (cells in annexin binding buffer (Abcam)) 48 h later. Untreated HeLa cells served as negative controls. […]

[8] = test system: non-transformed rat cardiomyocytes; assay: Concordance of staining in doxorubicin-treated cardiomyocytes; assay type: cell-based; details: apoptosis induced with doxorubicin

Substance | NIR fluorescence signal from the tumors in AMN107-treated animals compared to vehicle-treated controls [1] | mean signal intensity (photons/sec/ROI) of anti-Fas antibody treated animals above IgG control antibody treated animals [2] | staining at room temperature versus 4° C. [3] | staining in PBS (without calcium or magnesium) compared to Annexin Binding Buffer (2.5 mM calcium) [3] | concordance in staining with Annexin V [4] | staining of live cells negative for FLICA staining [5] | staining / quantification of apoptosis with probe added directly to normal growth medium [6] | change of staining with increasing amounts of FBS (FACS) ([7]; HeLa treated with camptothecin) | stability of staining after washing ([7]; washed with 6 changes of PBS) | concordance in staining with Annexin V [8]
LDH-Alexa750: chicken LDHB (XpressBio) conjugated to Alexa750-NHS at a labeling ratio of 2:1 | > 4 fold | 4.2 fold | – | – | – | – | – | – | – | –
cLDHB: chicken LDHB used as fluorescently labeled probe; fluorochrome not stated at the place | – | – | Identical results | identical under both conditions | concordance in staining | negative | apoptosis can be quantified | no significant changes | entirely stable | Concordant staining

From patent publication US8999661B2, “Compositions for detecting cell death and methods of use thereof” (Dana-Farber Cancer Institute, Inc., priority 2008, dated 2015)
